According to patent publication US20060148903A1, “Capsaicinoid gel formulation and uses thereof” (AlgoRx Pharmaceuticals, Inc., priority 2004, published 2006):
Values after ≈ are worked out from the molar mass of the structure shown.

What was measured:
physchem [1] = format: physicochemical; settings: 25 °C, thermodynamic from solid
Experimental: A known weight of capsaicin drug substance was weighed into a 4 ml Wheaton vial. A known volume of solvent was added and the sample placed in an ultrasonic bath for a minimum of 5 minutes. The temperature of the water bath was kept <25° C. at all times. Samples were transferred to a shaker bath at 25° C./60% RH and left for a minimum of 5 days. The samples were inspected and samples showing saturation (excess solid material remaining) removed for analysis. An additional known weight of capsaicin was added to the remaining samples and they were returned to the shaker bath. This was repeated until all samples had reached saturation.
Samples were filtered through a 0.45 μm PVDF Millipore Millex-HV hydrophilic disposable filter into a clean Wheaton vial. Sample absorbance was determined at 280 nm using 2 mm matched cuvettes. Samples were read against their equivalent solvent blank. Where necessary samples were diluted with methanol and these samples read against a methanol blank.
The concentration of each solution was determined by comparison with the absorbance of a capsaicin reference standard solution of known concentration.
Tween 80 results were very promising therefore the two materials were combined to investigate any possible synergistic effect on capsaicin solubility. […]

physchem [2] = format: physicochemical; settings: for solubility at 7 days: 2 °C; for solubility at 7 days / solubility at 4 days: thermodynamic from solid; for solubility at 4 days: 25 °C; for Indicative solubility of capsaicin, Concentration mg/ml: 4 days
Experimental: The solubility of capsaicin was determined for the following vehicles by adding an excess of capsaicin and determining the saturation solubility by UV analysis of the supernatant.
Aliquots of 5 ml of each vehicle were dispensed into vials in duplicate and excess capsaicin added equivalent to 5 mg/ml. A small magnetic stirrer bar was introduced into vials containing the gel vehicle and mixed for approximately 5 minutes to disperse the capsaicin. All vials were sonicated for a total of 20 minutes maintaining the temperature below 25° C. The vials were stirred for a further hour.
One vial from each formulation was placed at 25° C./60% RH and one vial from each formulation was placed on a shaker at 2-8° C.
Vials were removed from 25° C./60% RH after storage for 4 days. Vials stored at 2-8° C. were removed from the shaker after storage for 4 days and returned to 2-8° C. to equilibrate further before being removed after storage for a total of 7 days.
A reference solution containing capsaicin 0.06 mg/ml in methanol was prepared. Samples were centrifuged for 20 minutes at 15000 rpm. The resultant supernatant from each vial was carefully transferred to fresh vials. The supernatant from each sample was diluted 1 in 50 with methanol and analyzed by UV at 280 nm using matched quartz cuvettes versus a methanol blank.

[3] = fold more potent than capsaicin; cited from earlier work
[4] = pH 5.5, aqueous with cosolvent or surfactant or cyclodextrin, Indicative solubility of capsaicin, Concentration mg/ml
[5] = pH 7, aqueous with cosolvent or surfactant or cyclodextrin, Indicative solubility of capsaicin, Concentration mg/ml

solubility (physchem [1]; aqueous with cosolvent or surfactant or cyclodextrin, increase of capsaicin solubility for each 1% increase in Tween 80) [µg/mL]	solubility (physchem [1]; organic solvent or mixture, Capsaicin Solubility (mg/ml)) [µg/mL]	solubility at 7 days (physchem [2]; [4]) [µg/mL]	solubility at 7 days (physchem [2]; [5]) [µg/mL]	solubility at 4 days (physchem [2]; aqueous with cosolvent or surfactant or cyclodextrin, solubility of capsaicin gel formulations) [µg/mL]	solubility at 4 days (physchem [2]; [4]) [µg/mL]	solubility at 4 days (physchem [2]; [5]) [µg/mL]	solubility at 4 days (physchem [2]; pH 7, aqueous with cosolvent or surfactant or cyclodextrin, capsaicin solubility in isotonic gel vehicles) [µg/mL]	Indicative solubility of capsaicin, Concentration mg/ml (physchem [2]; pH 5.5) [mg/mL]	Indicative solubility of capsaicin, Concentration mg/ml (physchem [2]; pH 7) [mg/mL]	capsaicin concentration in gel formulations (physchem [2]; gel formulations stored at 2-8° C.) [mg/mL]	SMILES	potency relative to capsaicin [3]
~1000	160000	2200 (≈ 7.2 mM)	2000 (≈ 6.55 mM)	2000 (≈ 6.55 mM)	2200 (≈ 7.2 mM)	2100 (≈ 6.88 mM)	~2000 (≈ 6.55 mM)	2.1	1.9	2	COc1cc(CNC(=O)CCCC/C=C/C(C)C)ccc1O [Capsaicin, N-(4-hydroxy-3-methoxybenzyl)-8-methylnon-trans-6-enamide]	–
–	–	–	–	–	–	–	–	–	–	–	C=C(C)[C@]12C[C@@H](C)[C@@]34O[C@](Cc5ccccc5)(O[C@@H]1[C@@H]3C=C(COC(=O)Cc1ccc(O)c(OC)c1)C[C@]1(O)C(=O)C(C)=C[C@@H]41)O2 [Resiniferatoxin]	103-104 fold
